Tests used:
[1] = system: d-amphetamine induced hyperactivity in mice; assay: Antagonism of d-amphetamine-induced hyperlocomotion in mice; format: in vivo; conditions: d-amphetamine 2.5 mg/kg i.p.
Method: FIG. 3 is a schematic representation of the effect of (S)-2-(Benzylamino-methyl)-2,3,8,9-tetrahydro-7H-1,4-dioxino[2,3-e]indol-8-one (agent) to reverse d-amphetamine induced hyperactivity in mice. The data are expressed as a percentage of the activity level (horizontal activity counts) observed in mice treated with d-amphetamine alone for eight doses ranging from 0.0001 to 1 mg/kg s.c. of agent. The data are presented as means±SEM.
The ability to antagonize amphetamine-induced hyperlocomotion was tested according to a modified version of the methods of Riffee and Wilcox, Psychopharmacology, 1985, 85:97-101. Mice (25-30 g) were transported from the colony room to the experimental room and held there for the duration of the experiment. […] Control groups, assessed simultaneously with drug-treated groups, received vehicle at equal volumes (10 ml/kg). […] Activity was monitored for 30 minutes with lights on using Omnitech Digiscan® (Columbus, Ohio) infrared monitors. Each infrared beam break was counted by the automated system and totaled at 10 minute intervals. […]
FIG. 3 is a schematic representation of the effect of (S)-2(Benzylamino-methyl)-2,3,8,9-tetrahydro-7H-1,4-dioxino[2,3-e]indol-8-one (agent) to reverse d-amphetamine induced hyperactivity in mice. The data are expressed as a percentage of the activity level observed in mice treated with d-amphetamine alone and are presented as means±SEM.

[2] = system: haloperidol-induced catalepsy in rats; assay: Reversal of haloperidol-induced catalepsy in rats; format: in vivo, Sprague-Dawley rats; conditions: haloperidol 3 mg/kg i.p.
Method: FIG. 1 is a schematic representation of the effect of (S)-2-(benzylaminomethyl)-2,3,8,9-tetrahydro-7H-1,4-dioxino[2,3-e]indol-8-one (agent) on haloperidol-induced catalepsy in rats at 60 minutes after drug treatment, the time point of greatest reversal as measured by seconds spent in catelepsy over a dose range of 0.003 to 3 mg/kg s.c. of agent. The data are means±SEM.
Tests for reversal of haloperidol-induced catalepsy in rats were conducted according to a variation of the methods of Svensson et al., Neuropharmacology, 1993, 32:1037-1045. Rats (200-250 g) were transported from the colony room to the experimental room and held there for the duration of the experiment. Haloperidol, dissolved in 0.25% Tween 80®, was administered to all animals at a dose of 3 mg/kg i.p. Sixty minutes later, (S)-2-(benzylamino-methyl)-2,3,8,9-tetrahydro-7H-1,4-dioxino[2,3-e]indol-8-one, also dissolved in 0.25% Tween 80®, was administered s.c. at 4 dose levels to 6 male Sprague-Dawley rats per dose level. A control group, assessed simultaneously with (S)-2-(benzylamino-methyl)-2,3,8,9-tetrahydro-7H-1,4-dioxino[2,3-e]indol-8-one treated groups, received a vehicle (VEH) injection of 0.25% Tween 80® at equal volumes (1 ml/kg). Animals were assessed for catalepsy at 30, 60, 90 and 120 minutes after drug administration by placing the animal's forepaws on a wooden cube (8×8×8 cm). The time that the animal remained with at least one of the forepaws on the cube was measured (maximum=60 sec). The righting reflex was then tested and used to discard sedated subjects. Data were analyzed using a two-factor analysis of variance with one repeated measure. A subsequent least significant difference from control test (p<0.05) was used to determine the minimal effective dose (MED) for reversing haloperidol-induced catalepsy and to determine time of onset. A trend test was then used to determine at which time points (if any) there was a dose-related effect. […]

catalepsy in rats = assay: Cataleptogenic potential in rats (no haloperidol); format: in vivo; conditions: 0.003 to 3 mg/kg s.c., 60 min post dosing, similar at the other time points

In the case of `O=C1Cc2c(ccc3c2O[C@@H](CNCc2ccccc2)CO3)N1` [(S)-2-(benzylamino-methyl)-2,3,8,9-tetrahydro-7H-1,4-dioxino[2,3-e]indol-8-one], the ED50 ([1]; Mus musculus, agent s.c., horizontal activity counts 10-20 min, read-out: ED50 (dose producing 50% reduction in activity), d-amphetamine-induced hyperactivity) is reported as 0.002 mg/kg, the “d-amphetamine-induced hyperactivity (horizontal activity counts, % of d-amphetamine alone)” value ([1]; agent 0.0001 to 1 mg/kg s.c.) is reported as “dose-dependent decreased” and the ED50 ([2]; Rattus norvegicus, 1 h, agent s.c., 60 minutes after drug treatment (time point of greatest reversal), read-out: ED50 (dose producing 50% reduction in maximal response), reversal of haloperidol-induced catalepsy) is reported as 0.08 mg/kg. The “time spent in catalepsy position” value ([2]; agent 0.003 to 3 mg/kg s.c., 60 minutes after drug treatment) was “dose-dependent decrease”, the “MED (minimal effective dose) for reversing haloperidol-induced catalepsy” value ([2]; agent s.c. 60 min later, 60 minutes after drug treatment) was 0.3 mg/kg and the “ability to induce catalepsy” value (catalepsy in rats) was “lack of ability of the agent to induce significant catalepsy”.

Reference: patent US6350773B1, “Therapeutic combinations of (S)-2-(benzylamino-methyl)-2,3,8,9,-tetrahydro 7H-1,4-dioxino{2,3-e}indol-8-one and neuroleptics for the treatment or prevention of psychotic disorders” (American Home Products Corporation, priority 1999, dated 2002)
